Assay [1] deals with full-length human PRMT6 (Flag- and His-tagged) (Homo sapiens, UniProt Q96LA8). As to the kind of experiment: PRMT6 Biochemical Assay (3H-SAM Flashplate, peptide substrate). Conditions: read-out: Biochemical IC50 PRMT6. The method in brief:
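Flag/His-tagged full-length human PRMT6 (1 nM) preincubated with compound 30 min at room temperature in Bicine pH 7.6 buffer, then reaction started with 3H-SAM 200 nM plus unlabeled SAM 250 nM and biotinylated H4 36-50 peptide (K44me1) 75 nM; 2% DMSO. Quenched with 400 uM cold SAM; labeled peptide captured on streptavidin Flashplate, counted; % inhibition vs DMSO and 1 mM SAH controls fit by 3- or 4-parameter curve.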

In assay [2] the test system is mono-methyl arginine in RKO cells. Briefly: RKO Methylation Assay, In Cell Western (ICW) for detection of mono-methyl arginine and DNA content. The assay is classed as cell-based. Conditions: Homo sapiens, RKO, 72 h. The method in brief:
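RKO cells were treated with compound for 72 hours at 37 °C, methanol-fixed and stained overnight at 4 °C with anti-mono-methyl arginine (1:200), with DRAQ5 for DNA. Odyssey 800/700 nm intensity ratio was normalized to DMSO and 20 μM reference-compound controls. EC30 from triplicate nine-point curves.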

The mark [3] stands for this setting: single experiment or average of multiple experiments.
Where [4] appears, read: RKO cells, 72 hours compound incubation, mono-methyl arginine signal normalised to DNA content (DRAQ5), percent activation vs 20 μM reference compound, read-out: In Cell Western EC30.
Where [5] appears, read: RKO cells, 72 hours incubation, mono-methyl arginine signal normalised to DNA content, single experiment or average of multiple experiments, read-out: In Cell Western EC30.
The mark [6] stands for this setting: read-out: In Cell Western EC30, RKO cells, 72 hours compound incubation, mono-methyl arginine signal normalised to DNA content (DRAQ5), percent activation vs 20 μM reference compound.
[7] abbreviates: read-out: In Cell Western EC30, RKO cells, 72 hours incubation, mono-methyl arginine signal normalised to DNA content, single experiment or average of multiple experiments.

Where a name gives a salt, the structure may show the parent alone. Read-outs that look alike come from different tables or passages of the source. Where only a bound is given, the exact number is not on record here.

Chain of full-length human PRMT6 (Flag- and His-tagged) (Q96LA8 with tags, fused parts or gaps): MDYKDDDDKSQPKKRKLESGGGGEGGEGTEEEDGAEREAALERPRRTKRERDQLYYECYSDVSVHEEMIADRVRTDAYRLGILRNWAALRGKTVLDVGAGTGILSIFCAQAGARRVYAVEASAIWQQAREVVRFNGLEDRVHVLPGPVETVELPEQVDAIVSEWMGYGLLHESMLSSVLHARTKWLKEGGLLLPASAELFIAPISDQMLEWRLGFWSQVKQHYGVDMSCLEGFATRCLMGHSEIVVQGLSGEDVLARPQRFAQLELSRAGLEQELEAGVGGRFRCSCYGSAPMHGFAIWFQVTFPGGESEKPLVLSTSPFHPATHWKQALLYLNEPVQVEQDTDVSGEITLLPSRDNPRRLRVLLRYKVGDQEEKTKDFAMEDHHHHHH

For the compound `CNCCN(C)Cc1cn(C)nc1[C@H]1CC[C@]2(CC1)CC(C)(C)CO2` [Compound 206, Methyl([1-methyl-3-[(5R,8S)-3,3-dimethyl-1-oxaspiro[4.5]decan-8-yl]-1H-pyrazol-4-yl]methyl)[2-(methylamino)ethyl]amine hydrochloride], the IC50 is 101 to 1000 nM in assay [1] and 207 nM in assay [1] (setting [3]). Moreover, the EC30 is < 3000 nM in assay [2] (setting [4]) and 76.5 nM in assay [2] (setting [5]).
Consider `CN(CCN)Cc1c[nH]nc1[C@H]1CC[C@@]2(CC1)CC(C)(C)CO2` [Compound 207], for which, in assay [1], the IC50 was < 100 nM. Also, the concentration for an effect of 30% (EC30) in assay [2] (setting [4]) is < 3000 nM; in assay [2] (setting [5]), 12.1 nM.
`CN(CCN)Cc1c[nH]nc1[C@H]1CC[C@]2(CC1)CC(C)(C)CO2` [Compound 208]: the results for the half-inhibitory concentration (IC50) in assay [1] and in assay [1] (setting [3]) were < 100 nM and 45.3 nM, respectively. Also, the EC30 in assay [2] (setting [4]) is < 3000 nM; in assay [2] (setting [5]) it was 67.2 nM.
`CNCCN(C)Cc1c[nH]nc1[C@H]1CC[C@H](C(=O)N(C)CCC(C)C)CC1` [Compound 209]: the IC50 in assay [1] is < 100 nM; in assay [1] (setting [3]), 52.1 nM. Further, the EC30 in assay [2] (setting [4]) was < 3000 nM; in assay [2] (setting [5]), 916 nM.
`CNCCN(C)Cc1c[nH]nc1[C@H]1CC[C@@H](C(=O)N(C)CCC(C)C)CC1` [Compound 210]: the results for the IC50 in assay [1] and in assay [1] (setting [3]) were < 100 nM and 31.7 nM, respectively. Besides, the EC30 in assay [2] (setting [4]) is < 3000 nM; in assay [2] (setting [5]), 280 nM.
The corresponding values for `CNCCN(C)Cc1c[nH]nc1[C@H]1CC[C@H](C(=O)NCCOc2ccccc2)CC1` [Compound 211] are < 100 nM, 11.4 nM, < 3000 nM and 155 nM.
For the compound `CNCCN(C)Cc1c[nH]nc1[C@H]1CC[C@@H](C(=O)NCCOc2ccccc2)CC1` [Compound 212], the figures for the half-maximal inhibitory concentration (IC50) in assay [1] and in assay [1] (setting [3]) were < 100 nM and 13.6 nM, respectively. Also, the concentration for an effect of 30% (EC30) in assay [2] (setting [4]) was < 3000 nM; in assay [2] (setting [5]), 433 nM.
The corresponding values for `CNCCN(C)Cc1c[nH]nc1[C@H]1CC[C@H](C(=O)N(CCCOC)CCC(C)C)CC1` [Compound 213] are < 100 nM, 91.3 nM, < 3000 nM and 433 nM.
On to `CNCCN(C)Cc1c[nH]nc1[C@H]1CC[C@@H](C(=O)N(CCCOC)CCC(C)C)CC1` [Compound 214], for which the half-maximal inhibitory concentration (IC50) was < 100 nM in assay [1] and 50.5 nM in assay [1] (setting [3]). For the same compound, the values for the 30% effect concentration (EC30) in assay [2] (setting [4]) and in assay [2] (setting [5]) were < 3000 nM and 95.8 nM, respectively.
The corresponding values for `CNCCN(C)Cc1c[nH]nc1[C@H]1CC[C@@H](C(=O)N(C)CC(C)C)CC1` [Compound 215] are < 100 nM, 30.6 nM, < 3000 nM and 164 nM.
For `CNCCN(C)Cc1c[nH]nc1C1CCC(F)(F)CC1` [Compound 216], the IC50 in assay [1] was < 100 nM; in assay [1] (setting [3]), 20.5 nM. Also, the concentration for an effect of 30% (EC30) is < 3000 nM in assay [2] (setting [4]) and 111 nM in assay [2] (setting [5]).
As to `CNCCN(C)Cc1c[nH]nc1[C@H]1CC[C@@H](O)CC1` [Compound 217, 4-[4-([methyl[2-(methylamino)ethyl]amino]methyl)-1H-pyrazol-3-yl]cyclohexan-1-ol trifluoroacetate], the half-maximal inhibitory concentration (IC50) was < 100 nM in assay [1] and 34 nM in assay [1] (setting [3]). In addition, the results for the EC30 in assay [2] (setting [6]) and in assay [2] (setting [7]) were < 3000 nM and 111 nM, respectively.
Take `CNCCN(C)Cc1c[nH]nc1[C@H]1CC[C@H](N(CCOc2ccccc2)C(=O)CCOC)CC1` [Compound 219]: the values for the half-maximal inhibitory concentration (IC50) in assay [1] and in assay [1] (setting [3]) were < 100 nM and 31.9 nM, respectively. For the same compound, the concentration for an effect of 30% (EC30) in assay [2] (setting [4]) was < 3000 nM; in assay [2] (setting [5]), 294 nM.
With `CCC(=O)N(CCOc1ccccc1)[C@H]1CC[C@@H](c2n[nH]cc2CN(C)CCNC)CC1` [Compound 220], the IC50 in assay [1] is < 100 nM; in assay [1] (setting [3]), 18.4 nM. For the same compound, the EC30 in assay [2] (setting [4]) is < 3000 nM; in assay [2] (setting [5]) it was 219 nM.
For the compound `CCC(=O)N(CCOc1ccccc1)[C@H]1CC[C@H](c2n[nH]cc2CN(C)CCNC)CC1` [Compound 221], the 50% inhibitory concentration (IC50) in assay [1] is < 100 nM; in assay [1] (setting [3]), 19.2 nM. The EC30 is < 3000 nM in assay [2] (setting [4]) and 490 nM in assay [2] (setting [5]).
Take `CNCCN(C)Cc1c[nH]nc1[C@H]1CC[C@@H](N(CCOc2ccccc2)C(=O)CC(C)C)CC1` [Compound 222]: the values for the IC50 in assay [1] and in assay [1] (setting [3]) were < 100 nM and 21.3 nM, respectively. Besides, the results for the EC30 in assay [2] (setting [4]) and in assay [2] (setting [5]) were < 3000 nM and 2610 nM, respectively.
As to `CNCCN(C)Cc1c[nH]nc1[C@H]1CC[C@H](N(CCOc2ccccc2)C(=O)CC(C)C)CC1` [Compound 223], the values for the IC50 in assay [1] and in assay [1] (setting [3]) were < 100 nM and 15.8 nM, respectively. Besides, the 30% effect concentration (EC30) in assay [2] (setting [4]) was < 3000 nM; in assay [2] (setting [5]), 275 nM.
For the compound `CCN(C(=O)CCOc1ccccc1)[C@H]1CC[C@@H](c2n[nH]cc2CN(C)CCNC)CC1` [Compound 224], the IC50 is < 100 nM in assay [1] and 18 nM in assay [1] (setting [3]). The EC30 was < 3000 nM in assay [2] (setting [4]) and 84.7 nM in assay [2] (setting [5]).
On to `CCN(C(=O)CCOc1ccccc1)[C@H]1CC[C@H](c2n[nH]cc2CN(C)CCNC)CC1` [Compound 225], for which the half-inhibitory concentration (IC50) in assay [1] was < 100 nM; in assay [1] (setting [3]), 11.6 nM. For the same compound, the figures for the EC30 in assay [2] (setting [4]) and in assay [2] (setting [5]) were < 3000 nM and 649 nM, respectively.
The corresponding values for `CNCCN(C)Cc1c[nH]nc1[C@H]1CC[C@H](C(=O)N(C)CC(C)C)CC1` [Compound 226] are < 100 nM, 41.5 nM, < 3000 nM and 1530 nM.
Regarding `CNCCN(C)Cc1c[nH]nc1[C@H]1CC[C@H](O)CC1` [Compound 227, 4-[4-([methyl[2-(methylamino)ethyl]amino]methyl)-1H-pyrazol-3-yl]cyclohexan-1-ol trifluoroacetate], the 50% inhibitory concentration (IC50) in assay [1] was < 100 nM; in assay [1] (setting [3]), 17.8 nM. Further, the 30% effect concentration (EC30) in assay [2] (setting [6]) was < 3000 nM; in assay [2] (setting [7]), 1530 nM.
`CNCCN(C)Cc1c[nH]nc1[C@H]1CC[C@H](N(CCOc2ccccc2)C(=O)CCCOC)CC1` [Compound 229]: the IC50 in assay [1] is < 100 nM; in assay [1] (setting [3]), 29.1 nM. The results for the EC30 in assay [2] (setting [4]) and in assay [2] (setting [5]) were < 3000 nM and 689 nM, respectively.
The like results for `CNCCN(C)Cc1c[nH]nc1[C@H]1CC[C@H](N(CCOC)C(=O)CCOc2ccccc2)CC1` [Compound 230] were, in that order, < 100 nM, 23.1 nM, < 3000 nM and 1320 nM.
The like results for `CNCCN(C)Cc1c[nH]nc1[C@H]1CC[C@@H](N(CC(C)C)C(=O)CCOc2ccccc2)CC1` [Compound 231] were, in that order, < 100 nM, 14.7 nM, < 3000 nM and 96.7 nM.
As for `CNCCN(C)Cc1c[nH]nc1[C@H]1CC[C@H](N(CC(C)C)C(=O)CCOc2ccccc2)CC1` [Compound 232], the 50% inhibitory concentration (IC50) is < 100 nM in assay [1] and 19.4 nM in assay [1] (setting [3]). The EC30 in assay [2] (setting [4]) is < 3000 nM; in assay [2] (setting [5]), 957 nM.
For the compound `CNCCN(C)Cc1c[nH]nc1[C@H]1CC[C@@H](N(CC(C)C)C(=O)CCOC)CC1` [Compound 233], the IC50 is < 100 nM in assay [1] and 47.9 nM in assay [1] (setting [3]). The EC30 was < 3000 nM in assay [2] (setting [4]) and 1060 nM in assay [2] (setting [5]).
With `CNCCN(C)Cc1c[nH]nc1[C@H]1CC[C@H](N(CC(C)C)C(=O)CCOC)CC1` [Compound 234], the values for the IC50 in assay [1] and in assay [1] (setting [3]) were < 100 nM and 84.1 nM, respectively. The EC30 in assay [2] (setting [4]) was < 3000 nM; in assay [2] (setting [5]), 1060 nM.
As to `CNCCN(C)Cc1c[nH]nc1[C@H]1CC[C@@H](N(CCC(C)C)C(=O)CCOC)CC1` [Compound 235], the values for the IC50 in assay [1] and in assay [1] (setting [3]) were < 100 nM and 34.1 nM, respectively. The EC30 in assay [2] (setting [4]) is < 3000 nM; in assay [2] (setting [5]), 813 nM.
For the compound `CNCCN(C)Cc1c[nH]nc1[C@H]1CC[C@H](N(CCC(C)C)C(=O)CCOC)CC1` [Compound 236], the IC50 was < 100 nM in assay [1] and 62.4 nM in assay [1] (setting [3]). Further, the EC30 was < 3000 nM in assay [2] (setting [4]) and 813 nM in assay [2] (setting [5]).
For `CNCCN(C)Cc1c[nH]nc1[C@H]1CC[C@@H](N(CCC(C)C)C(=O)CCCOC)CC1` [Compound 237], the IC50 was < 100 nM in assay [1] and 41 nM in assay [1] (setting [3]). In addition, the EC30 in assay [2] (setting [4]) is < 3000 nM; in assay [2] (setting [5]), 1440 nM.
`CNCCN(C)Cc1c[nH]nc1[C@H]1CC[C@H](N(CCC(C)C)C(=O)CCCOC)CC1` [Compound 238]: the IC50 was < 100 nM in assay [1] and 53.9 nM in assay [1] (setting [3]). Further, the EC30 was < 3000 nM in assay [2] (setting [4]) and 2150 nM in assay [2] (setting [5]).
Regarding `CCN(C(=O)CC(C)C)[C@H]1CC[C@H](c2n[nH]cc2CN(C)CCNC)CC1` [Compound 239], the IC50 in assay [1] was < 100 nM; in assay [1] (setting [3]), 7.75 nM. Moreover, the values for the EC30 in assay [2] (setting [4]) and in assay [2] (setting [5]) were < 3000 nM and 2150 nM, respectively.
The corresponding values for `CCN(C(=O)CC(C)C)[C@H]1CC[C@@H](c2n[nH]cc2CN(C)CCNC)CC1` [Compound 240] are < 100 nM, 6.72 nM, < 3000 nM and 1180 nM.

The record behind these values is US11512053B2, “Arginine methyltransferase inhibitors and uses thereof” (priority 2013, dated 2022).
